The numbers were not newly measured in US20240101656A1, “PLK1 INHIBITOR IN COMBINATION WITH ANTI-ANGIOGENICS FOR TREATING METASTATIC CANCER” (CARDIFF ONCOLOGY, INC., priority 2022, published 2024), which cites them from elsewhere.

The subject of one series is xenograft models of AML. Conditions: in vivo.
Series [1] deals with cell lines, both from solid as well as hematologic tumors.
The subject of the next series is xenograft tumor. As to conditions: well tolerated doses, oral administration.
Series [2] deals with HT29 human colon adenocarcinoma xenografts. Conditions: combination therapy with irinotecan.
Series [3] deals with disseminated models of AML.
For series [4] the following is noted: in vivo.
A further series addresses PLK1 (Homo sapiens, UniProt P53350).
The test system of series [5] is patients with advanced/metastatic solid tumors.
Series [6] has as its system patients with AML who were treatment naïve yet unsuitable for induction therapy. Conditions: intravenously, in combination with LDAC.
A further series relates to AML. Conditions: in combination with LDAC.
For series [7] the following is noted: 2nd line.

Like-named read-outs stand apart in the source and are kept apart here.

Chain of PLK1 (P53350 whole entry): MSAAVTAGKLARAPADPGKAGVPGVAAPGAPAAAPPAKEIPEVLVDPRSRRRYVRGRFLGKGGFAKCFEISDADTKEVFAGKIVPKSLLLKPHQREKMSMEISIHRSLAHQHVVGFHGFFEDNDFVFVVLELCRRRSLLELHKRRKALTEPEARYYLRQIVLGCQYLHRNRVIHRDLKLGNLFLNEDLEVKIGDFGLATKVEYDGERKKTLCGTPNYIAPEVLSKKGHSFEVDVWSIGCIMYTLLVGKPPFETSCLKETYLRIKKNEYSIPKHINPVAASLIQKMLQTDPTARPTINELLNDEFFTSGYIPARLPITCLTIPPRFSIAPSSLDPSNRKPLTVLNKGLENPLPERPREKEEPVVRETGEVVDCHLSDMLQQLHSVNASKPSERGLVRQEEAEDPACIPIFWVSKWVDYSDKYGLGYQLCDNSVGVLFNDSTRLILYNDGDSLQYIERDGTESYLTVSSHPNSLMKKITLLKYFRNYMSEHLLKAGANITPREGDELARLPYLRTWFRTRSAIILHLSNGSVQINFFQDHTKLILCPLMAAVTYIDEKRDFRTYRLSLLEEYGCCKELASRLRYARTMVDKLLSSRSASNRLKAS

As for `CN1CCN(c2ccc(OC(F)(F)F)c(Nc3ncc4c(n3)-c3c(c(C(N)=O)nn3CCO)CC4)c2)CC1` [onvansertib, 1-(2-hydroxyethyl)-8-{[5-(4-methylpiperazin-1-yl)-2-(trifluoromethoxy)phenyl]amino}-4,5-dihydro-1H-pyrazolo[4,3-h]quinazoline-3-carboxamide], the tumor growth result in the series with xenograft models of AML is reported as “inhibited”. Moreover, the “activity in proliferation assays” value in [1] is on record as “low nanomolar activity”. For the same molecule, the xenograft tumor growth result in the series with xenograft tumor is reported as “inhibits xenograft tumor growth”. Also, in the series on AML cell lines, the “concentrations inhibiting cell proliferation” value was “nanomolar concentrations”. For the same molecule, in series [2], the “tumor regression compared to each agent alone” value is on record as “enhanced tumor regression”. Besides, the survival of animals entry in series [3] (combination therapy with cytarabine) is “prolonged survival”. Also, in [3] (in combination with cytarabine), the cytarabine antitumor activity entry is recorded as “significantly increased”. In the series on cancer cell lines, the cell-cycle effect result is recorded as “mitotic cell-cycle arrest followed by apoptosis”. Further, the oral bioavailability result in series [4] is on record as “good oral bioavailability”. The “specificity for PLK1 among a panel of 296 kinases, including other PLK members” value at PLK1 was “high specificity”. Further, the primary dose-limiting toxicities entry in [5] (in vivo) is “neutropenia and thrombocytopenia”. Further, the “recovery from hematologic toxicities” value in series [5] (reversible) is no more than 3 weeks.

On to `CC[C@@H]1C(=O)N(C)c2cnc(Nc3ccc(C(=O)N[C@H]4CC[C@H](N5CCN(CC6CC6)CC5)CC4)cc3OC)nc2N1C(C)C` [volasertib (BI6727)], for which the “OS compared with LDAC alone” value in series [6] was “significant increase in OS”. In the series on AML, the “benefit of the combination” value is given as “no benefit” and the “risk of severe infections” value is listed as “increased risk of severe infections”.

For the molecule “bev: anti-angiogenics; Bevacizumab (also referred to herein as "bev")”, in series [7] (bev naïve), the mOS is given as 13.9 months and the mPFS is 6.9 months. Further, in series [7] (prior bev), the mOS was 12.5 months and the mPFS is reported as 6.7 months.
